The source made the active and inactive calls. The calls are words filed in the database; no cut-off is given here.

For experiment [1], the target named is T1, Bromodomain-containing protein 4 (Homo sapiens, UniProt O60885). Briefly: Inhibition of human recombinant BRD4 BD1 (42 to 167 residues) extracted from Escherichia coli BL21 (DE3) at 10 uM incubated for 2 hrs by TR-FRET assay relative to control. On the technique in general: Time-resolved FRET reads energy transfer from a long-lived donor to a nearby acceptor.

Experiment [2] deals with T1, Bromodomain-containing protein 4. The experiment is described as follows: Inhibition of human recombinant BRD4 BD2 (349 to 460 residues) extracted from Escherichia coli BL21 (DE3) at 10 uM incubated for 2 hrs by TR-FRET assay relative to control.
The target is the same in experiment [3]. Briefly: Inhibition of human recombinant BRD4 BD2 (349 to 460 residues) extracted from Escherichia coli BL21 (DE3) incubated for 2 hrs by TR-FRET assay.
For experiment [4], the system named is RAW264.7. Briefly: Anti-inflammatory activity in mouse RAW264.7 cells assessed as inhibition of LPS-induced NO production at 10 uM preincubated with compound for 24 hrs followed by LPS stimulation by Griess reagent based analysis relative to control. Type of experiment: functional. Also on record: scale not given: the % may be the effect or the level left. For orientation: Nitrite, measured by Griess reagent, commonly stands in for NO production.

Experiment [5] addresses T1, Bromodomain-containing protein 4. Briefly: Selectivity index, ratio of IC50 for human recombinant BRD4 BD1 (42 to 167 residues) extracted from Escherichia coli BL21 (DE3) to IC50 for human recombinant BRD4 BD2 (349 to 460 residues) extracted from Escherichia coli BL21 (DE3).
Experiment [6] shares this target. Briefly: Inhibition of human recombinant BRD4 BD1 (42 to 167 residues) extracted from Escherichia coli BL21 (DE3) incubated for 2 hrs by TR-FRET assay.
Experiment [7] relates to RAW264.7. The experiment is described as follows: Anti-inflammatory activity in mouse RAW264.7 cells assessed as inhibition of LPS-induced IL-6 expression preincubated with compound for 2 hrs followed by LPS stimulation and measured after 6 hrs by RT-qPCR analysis. The experiment is classed as functional, cell-based. As to conditions: dose 2.5-20 µM, time 8.0 hrs. In general terms: Quantitative PCR measures a nucleic acid by following its amplification.

In experiment [8] the test system is THP-1. The experiment is described as follows: Anti-inflammatory activity in human THP-1 cells assessed as inhibition of LPS-induced TNF-alpha expression preincubated with compound for 2 hrs followed by LPS stimulation and measured after 6 hrs by RT-qPCR analysis. Type of experiment: functional, cell-based. Conditions: dose 2.5-20 µM, time 8.0 hrs.
The subject of experiment [9] is RAW264.7. Briefly: Anti-inflammatory activity in mouse RAW264.7 cells assessed as inhibition of LPS-induced TNF-alpha expression preincubated with compound for 2 hrs followed by LPS stimulation and measured after 6 hrs by RT-qPCR analysis. The experiment is classed as functional, cell-based. As to conditions: dose 2.5-20 µM, time 8.0 hrs.
In experiment [10] the test system is RAW264.7. The experiment is described as follows: Anti-inflammatory activity in mouse RAW264.7 cells assessed as inhibition of LPS-induced NO production preincubated with compound for 24 hrs followed by LPS stimulation by Griess reagent based analysis. Type of experiment: functional, cell-based.
Experiment [11] has as its system THP-1. Briefly: Anti-inflammatory activity in human THP-1 cells assessed as inhibition of LPS-induced IL-6 expression preincubated with compound for 2 hrs followed by LPS stimulation and measured after 6 hrs by RT-qPCR analysis. As to conditions: dose 2.5-20 µM, time 8.0 hrs. Type of experiment: functional, cell-based.
In experiment [12] the target is T1, Bromodomain-containing protein 4. Briefly: Inhibition of BRD4 (unknown origin).

As for `COc1cc(OC)c2c(=O)[nH]c(C(=O)c3cc(F)ccc3F)nc2c1`, the values for the inhibition in [1] and in experiment [2] were 10% and 46%, respectively.
`COc1cc(OC)c2c(=O)[nH]c(C(=O)c3ccc(F)cc3)nc2c1`: the inhibition result in [1] and in [6] was “inactive” in each case. In addition, the inhibition in experiment [2] was 52%. Also, in [3], the half-maximal inhibitory concentration (IC50) came out at 1.84 µM. The Activity with RAW264.7 [4] came out at 18%. The Ratio IC50 in experiment [5] is above 10.
For the molecule `COc1cc(OC)c2c(=O)[nH]c(/C=C/c3ccc(Cl)cc3)nc2c1`, the inhibition in experiment [1] turned out to be 23%; in [2], 54%. Also, the IC50 in experiment [3] and in experiment [6] was above 10 µM each time. Moreover, the Activity in the experiment on RAW264.7 [4] was determined as 11%.
On to `COc1ccc(CCc2nc3cc(OC)cc(OC)c3c(=O)[nH]2)cc1`, for which the inhibition was found to be 12% in experiment [1] and 86% in [2]. Also, the half-maximal inhibitory concentration (IC50) in experiment [3] was 0.74 µM; in experiment [6], above 10 µM. Further, the Activity in the experiment with RAW264.7 [4] came to 17%. Also, the Ratio IC50 in [5] is above 13.
As for `COc1cc(OC)c2c(=O)[nH]c(-c3cc(C)c(OCCO)c(C)c3)nc2c1` [APABETALONE], the Activity result in the experiment with RAW264.7 [7] was “Dose-dependent-effect”; with THP-1 [8], “Dose-dependent-effect”; in the experiment on RAW264.7 [9] it was “Dose-dependent-effect”; in the experiment on RAW264.7 [4] it was 74%; in the experiment with THP-1 [11], “Dose-dependent-effect”. Also, in experiment [2], the inhibition was 99%. In addition, in the experiment on RAW264.7 [10], the concentration for half-maximal inhibition (IC50) was found to be 8.76 µM.
On to `Cc1nnn(C)c1-c1cnc2c3cc4cnn(C)c4cc3n([C@H](c3ccccc3)C3CCOCC3)c2c1`, for which the IC50 in experiment [12] came to 0.00245 µM.
As for `C[C@@H]1C[C@H]2[C@@H]3CCC4=CC(=O)C=C[C@]4(C)[C@@]3(F)[C@@H](O)C[C@]2(C)[C@@]1(O)C(=O)CO` [DEXAMETHASONE], the Activity in the experiment on RAW264.7 [4] is reported as 29%.
With `COc1cc(OC)c2c(=O)[nH]c(C(=O)c3cc(OC)c(OC)c(OC)c3)nc2c1`, the inhibition turned out to be 11% in experiment [1] and 17% in [2].
Consider `COc1cc(OC)c2c(=O)[nH]c(/C=C/c3ccc(N(C)C)cc3)nc2c1`, for which the figures for the inhibition in experiment [1] and in experiment [2] were 24% and 74%, respectively. The IC50 in [3] was 0.47 µM; in [6], above 10 µM. In addition, the Activity in the experiment with RAW264.7 [4] came out at 24%. The Ratio IC50 in experiment [5] was above 21.
Take `COc1ccc(C(=O)c2nc3ccccc3c(=O)[nH]2)cc1`: the results for the inhibition in [1] and in [2] were 54% and 42%, respectively. Further, the Activity in the experiment with RAW264.7 [4] amounted to 5.4%. Moreover, the IC50 in experiment [6] came to 2.16 µM.
As to `COc1cc(OC)c2c(=O)[nH]c(C(=O)c3ccc(OC)c(OC)c3)nc2c1`, the inhibition came out at 13% in experiment [1] and 47% in experiment [2].
In the case of `COc1cccc(/C=C/c2nc3cc(OC)cc(OC)c3c(=O)[nH]2)c1`, the inhibition entry in experiment [1] and in experiment [6] was “inactive” throughout. Further, in experiment [2], the inhibition came out at 67%. Moreover, the values for the IC50 (in the experiment with RAW264.7 [10]; in experiment [3]) were 5.22 µM and above 10 µM, respectively. In addition, the Activity with RAW264.7 [4] was 78%.
As to `COc1cc(OC)c2c(=O)[nH]c(C(=O)c3ccc(OCCO)cc3)nc2c1`, the inhibition was found to be 1.3% in [1] and 48% in [2].
With `COc1cc(OC)c2c(=O)[nH]c(/C=C/c3cc(OC)c(O)c(OC)c3)nc2c1`, the inhibition in [1] worked out at 13%; in [2] it was 98%. For the same molecule, the values for the half-maximal inhibitory concentration (IC50) in experiment [3] and in [6] were 0.39 µM and above 10 µM, respectively. In addition, in the experiment with RAW264.7 [4], the Activity worked out at 18%. For the same molecule, in experiment [5], the Ratio IC50 is above 26.
On to `COc1cc(OC)c2c(=O)[nH]c(C(=O)c3cccc(C(F)(F)F)c3)nc2c1`, for which the figures for the inhibition in experiment [1] and in experiment [2] were 13% and 53%, respectively. For the same molecule, the IC50 in [3] and in experiment [6] was above 10 µM in each case. Also, the Activity in the experiment with RAW264.7 [4] is 12%.
Consider `O=C(c1ccc(O)cc1)c1nc2ccccc2c(=O)[nH]1`, for which the inhibition in [1] stood at 17%; in [2], 11%.
In the case of `COc1ccc(C(=O)c2nc3cc(OC)c(I)c(OC)c3c(=O)[nH]2)cc1`, the inhibition was 10% in experiment [1] and 53% in experiment [2]. Also, the concentration for half-maximal inhibition (IC50) in experiment [3] and in [6] was above 10 µM throughout. In addition, in the experiment on RAW264.7 [4], the Activity is recorded as 14%.
For `COc1cc(OC)c2c(=O)[nH]c(CC(C)c3ccc(C(C)(C)C)cc3)nc2c1` (stereo not given), the inhibition was 54% in experiment [1] and 97% in [2]. Also, the half-maximal inhibitory concentration (IC50) in experiment [3] was 0.74 µM; in experiment [6], above 10 µM. In addition, the Activity in the experiment on RAW264.7 [4] worked out at 3.4%. Also, the Ratio IC50 in experiment [5] is above 13.
Consider `COc1ccc(C(=O)c2nc3cc(OC)cc(OC)c3c(=O)[nH]2)cc1`, for which the inhibition entry in experiment [1] and in [6] was “inactive” each time. Also, the inhibition in experiment [2] worked out at 51%. Further, in experiment [3], the concentration for half-maximal inhibition (IC50) is 3.93 µM. The Activity in the experiment with RAW264.7 [4] amounted to 6.4%. In addition, the Ratio IC50 in [5] was above 10.
`COc1cc(OC)c2c(=O)[nH]c(C(=O)c3cccc(C#N)c3)nc2c1`: the figures for the inhibition in experiment [1] and in experiment [2] were 12% and 48%, respectively.
In the case of `COc1cc(OC)c2c(=O)[nH]c(/C(C)=C/c3ccccc3)nc2c1`, the inhibition in experiment [1] turned out to be 20%; in experiment [2] it was 59%. Also, the half-maximal inhibitory concentration (IC50) was 1.33 µM in [3] and above 10 µM in experiment [6]. Also, the Activity with RAW264.7 [4] was 6.8%. Moreover, in experiment [5], the Ratio IC50 was above 7.
As to `O=C(c1ccc2ccccc2c1)c1nc2ccccc2c(=O)[nH]1`, the inhibition in experiment [1] came out at 16%; in [2] it was 17%.
Regarding `COc1cc(OC)c2c(=O)[nH]c(C3CCN(Cc4ccccc4)CC3)nc2c1`, the inhibition in experiment [1] turned out to be 51%; in experiment [2], 46%. In addition, the concentration for half-maximal inhibition (IC50) with RAW264.7 [10] is 6.78 µM; in experiment [3], above 10 µM; in experiment [6], 7.87 µM. Moreover, in the experiment with RAW264.7 [4], the Activity is recorded as 89%.
Turning to `COc1ccc(Cc2nc3cc(OC)cc(OC)c3c(=O)[nH]2)cc1`, the results for the inhibition in [1] and in experiment [2] were 56% and 75%, respectively. In addition, the IC50 in [3] was 1.52 µM; in [6] it was 4.59 µM. Also, the Activity with RAW264.7 [4] was 15%. Also, the Ratio IC50 in experiment [5] is 3.
As to `COc1cc(OC)c2c(=O)[nH]c(C=C(c3ccccc3)c3ccccc3)nc2c1`, the inhibition in experiment [1] was found to be 3.1%; in experiment [2], 66%. Besides, the IC50 in experiment [3] was 7.06 µM; in experiment [6], above 10 µM. Also, the Activity in the experiment on RAW264.7 [4] came out at 21%. In addition, in [5], the Ratio IC50 was above 1.
On to `COc1cc(C(=O)c2nc3ccccc3c(=O)[nH]2)cc(OC)c1OC`, for which the inhibition stood at 22% in [1] and 15% in [2].

As usually defined, the inhibition is the relative decrease from the control value, in per cent. The term IC50 denotes the concentration that gives 50% inhibition.

Values taken from ChEMBL document CHEMBL6121006, “Marine natural product-inspired discovery of novel BRD4 inhibitors with anti-inflammatory activity” (Eur J Med Chem, 2025).
